Assay results as given in BindingDB's records for doi:10.1016/S0960-894X(00)80454-0 (1992).

Test: In vitro binding affinity using [3H]LTB4 radioligand binding to leukotriene B4 receptor in human neutrophil binding assay

| Ki [nM] | SMILES |
| --- | --- |
| 1.9 | CCCc1c(OCCCOc2cc(O)c(OC)cc2CC)ccc2c1OC(C(=O)O)CC2 (configuration not stated) [7-[3-(2-Ethyl-5-hydroxy-4-methoxy-phenoxy)-propoxy]-8-propyl-chroman-2-carboxylic acid] |
| 3.5 | CCCc1c(OCCCOc2cc(O)c(OCC)cc2CC)ccc2c1OC(C(=O)O)CC2 (configuration not stated) [7-[3-(4-Ethoxy-2-ethyl-5-hydroxy-phenoxy)-propoxy]-8-propyl-chroman-2-carboxylic acid] |
